This is an account of results in patent US12059422B2 (MEI Pharma, Inc., priority 2011, dated 2024).

One assay has as its target mTOR (Homo sapiens, UniProt P42345). The assay can be described thus: mTOR inhibition (Table 1). It counts as biochemical. Conditions: Table 1, no method described.
For a further assay, the target named is T1, PI3Kδ (Homo sapiens, UniProt O00329).
T1 construct: endogenous in cells; host or cells: Raji (ATCC #CCL-86)
The assay can be described thus: ELISA assay for PI3Kδ: sandwich ELISA, phosphorylation of AKT (Thr308) in Raji cells. In kind it is cell-based. As to conditions: cellular, pAKT (Thr308), Raji cells, anti-Human IgM stimulation; read-out: IC50 p110δ. The procedure: Cellular PI3Kδ activity was determined by measuring the phosphorylation of AKT (Thr308) using a sandwich enzyme-linked immunosorbant assay (ELISA). Raji (Burkitt's Lymphoma) cells were obtained from ATCC (ATCC #CCL-86). Phosphate buffer saline (PBS) contained 2.7 M NaCl, 54 mM KCl, 86 mM […] (dibasic, anhydrous), and 28 mM […] (monobasic, anhydrous) at pH 7.2. Wash buffer contained PBS supplemented with 0.05% Tween-20. Blocking buffer contained wash buffer supplemented with 1% BSA. A 10× stimulation mixture contained 5 μg/mL anti-Human IgM antibody (Sigma #12386) diluted in serum-free RPMI medium (CellGro #CV-10-040-CV). Compounds for testing were dissolved and serially diluted in 100% DMSO (total of 10 concentrations), and then diluted in serum-free RPMI to 5×final assay concentration.
Raji cells were subcultured in RPMI medium supplemented with 10% fetal bovine serum, 100 IU/mL penicillin, 100 μg/mL streptomycin, and 1×MEM non-essential amino acids. Sandwich ELISA plates were prepared by coating 96-well assay plates (Pierce #15042) with 100 μL/well capture antibody (Cell Signaling Technology #7142 or 7144) diluted in PBS. Plates were incubated overnight at 4° C., then washed with wash buffer, after which 200 μL/well blocking buffer was added to the plates and incubated at room temperature for at least 2 hrs. Raji cells were resuspended in serum-free RPMI medium and seeded into V-bottom, 2-mL 96-well blocks (Corning #3961) at 10^6 cells/well, then incubated for 2 hrs in a 37° C., 5% CO2 incubator. Compound treatment was performed by adding the 5× compound mixture to the cells and incubating for 2 hrs at 37° C., 5% CO2, after which the 10× stimulation mixture was added to the plates and incubated for 30 min at 37° C., 5% CO2. Cells were pelleted by centrifuging plates at 1500 RPM for 5 min at room temperature. Media was carefully removed and cells were lysed by adding 100 μL/well cell lysis buffer (Cell Signaling Technology #9803) supplemented with protease and phosphatase inhibitors (Thermo Fisher #78443). Plates were incubated on ice for 30 min, then the lysates (80 μL for pAKT^T308, 10 μL for total AKT) were transferred to prepared assay plates and incubated at 4° C. overnight. After washing plates with wash buffer, 100 μL/well detection antibody (Cell Signaling Technology #7142 or 7144) diluted in blocking buffer was added to the plates and incubated for 1 hr at 37° C. Plates were washed and 100 μL/well of HRP-conjugated secondary antibody (Cell Signaling Technology #7142 or 7144) diluted in blocking buffer was added to plates and incubated for 1 hr at room temperature. Plates were washed with wash buffer and 100 μL/well of luminescent substrate was added to plates. After 1 min on a plate shaker at medium speed, luminescence was read on a Wallac Victor2 plate reader. IC50 values were determined by curve fitting using a Collaborative Drug Discovery database (www.collaborativedrug.com).
In general terms: In an ELISA, binding on a coated surface is turned into a signal by an enzyme label.

For the next assay, the target named is T2, PI3K gamma (Homo sapiens, UniProt P48736).
T2 construct: purchased Invitrogen Corp., Carlsbad, CA, USA
The assay can be described thus: Luciferase-based luminescence assay (ADP Glo), PI3K gamma enzymatic activity. In kind it is biochemical. Conditions: inhibition of enzymatic activity, 25 μM ATP, read-out: IC50 p110γ. The procedure: (§1) PI3K catalyzes the conversion of phosphatidylinositol-4,5-bisphosphate (PIP2) and ATP to phosphatidylinositol-3,4,5-trisphosphate (PIP3) and ADP. For all assays, the reaction buffer comprised 50 mM HEPES, pH 7.5, 3 mM MgCl2, 1 mM EGTA, 100 mM NaCl, 0.03% CHAPS and 2 mM DTT. Compounds for testing were dissolved and serially diluted in 100% DMSO (total of 10 concentrations), then diluted 1:25 in reaction buffer.
(§2) PI3K beta and gamma enzymatic activity was determined by measuring the amount of ADP produced following the kinase reaction using a luciferase-based luminescence assay (ADP Glo®, Promega Corp., Madison, WI, USA). PI3K enzyme solutions were prepared by diluting PI3K beta (Millipore, Billerica, MA, USA) or PI3K gamma (Invitrogen Corp., Carlsbad, CA, USA) in reaction buffer, to 4× the final assay concentration (final concentrations of enzymes were 4.8 nM and 7.6 nM for PI3K beta and PI3K gamma respectively). A substrate solution was prepared by mixing PIP2 and ATP in reaction buffer at 2× the final assay concentration (final concentrations were 50 μM and 25 μM for PIP2 and ATP respectively). 2.5 μL each of the compound and kinase mixtures were added to individual wells of white low volume 384-well assay plates and mixed by shaking. The reactions were started by adding 5 μL of substrate mixture per well and shaking. The assay plates were covered and reactions were allowed to proceed for 1 hour. Then, 5 μL of reaction mix was transferred to another white low volume 384-well plate, and 5 μL of ADP-Glo™ reagent was added. The plates were briefly centrifuged and incubated for 40 minutes, after which 10 μL of kinase detection buffer was added. The plates then were centrifuged briefly, shaken slowly and equilibrated at room temperature for 30 minutes, after which luminescence was measured using a FlexStation plate reader (Molecular Devices, Sunnyvale, CA, USA). IC50 values were determined by curve fitting using Graphpad Prism software (Graphpad Software, La Jolla, CA, USA).

The next assay has as its target T3, PI3K delta (Homo sapiens, UniProt O00329).
T3 construct: purchased Millipore, Billerica, MA, USA
The assay can be described thus: Luciferase-based luminescence assay (KinaseGlo), PI3K delta enzymatic activity. It counts as biochemical. Conditions: for IC50: inhibition of enzymatic activity, KinaseGlo, 25 μM ATP, read-out: IC50 p110δ; for α/δ ratio: ratio of enzymatic IC50 against PI3Kα over IC50 against PI3Kδ; for β/δ ratio / γ/δ ratio: ratio of enzymatic IC50 values, Table 1. The procedure:
as §1
(§3) PI3K alpha and PI3K delta enzymatic activity was determined by measuring the amount of ATP consumed following the kinase reaction using a luciferase-based luminescence assay (KinaseGlo®, Promega Corp., Madison, WI, USA). PI3K enzyme solutions were prepared by diluting PI3K alpha (Invitrogen Corp., Carlsbad, CA, USA) or PI3K delta (Millipore, Billerica, MA, USA) in reaction buffer, to 4× the final assay concentration (final concentrations of enzymes were 1.65 nM and 6.86 nM for PI3K alpha and PI3K delta, respectively). A substrate solution was prepared by mixing PIP2 and ATP in reaction buffer at 2× the final assay concentration (final concentrations were 50 μM and 25 μM for PIP2 and ATP respectively). 2.5 μL each of the compound and kinase mixtures were added to individual wells of white low volume 384-well assay plates and mixed by shaking. The reactions were started by adding 5 μL of substrate mixture per well and shaking. The assay plates were covered and reactions were allowed to proceed for 1 hour (PI3K alpha) or 2 hours (PI3K delta), after which 10 μL of Kinase Glo® reagent was added. The plates were briefly centrifuged and incubated for 10 minutes, after which luminescence was measured using a FlexStation plate reader (Molecular Devices, Sunnyvale, CA, USA). IC50 values were determined by curve fitting using Graphpad Prism software (Graphpad Software, La Jolla, CA, USA).

A further assay deals with T4, PI3K alpha (Homo sapiens, UniProt P42336).
T4 construct: purchased Invitrogen Corp., Carlsbad, CA, USA
T4 sequence (P42336 whole entry, species assumed): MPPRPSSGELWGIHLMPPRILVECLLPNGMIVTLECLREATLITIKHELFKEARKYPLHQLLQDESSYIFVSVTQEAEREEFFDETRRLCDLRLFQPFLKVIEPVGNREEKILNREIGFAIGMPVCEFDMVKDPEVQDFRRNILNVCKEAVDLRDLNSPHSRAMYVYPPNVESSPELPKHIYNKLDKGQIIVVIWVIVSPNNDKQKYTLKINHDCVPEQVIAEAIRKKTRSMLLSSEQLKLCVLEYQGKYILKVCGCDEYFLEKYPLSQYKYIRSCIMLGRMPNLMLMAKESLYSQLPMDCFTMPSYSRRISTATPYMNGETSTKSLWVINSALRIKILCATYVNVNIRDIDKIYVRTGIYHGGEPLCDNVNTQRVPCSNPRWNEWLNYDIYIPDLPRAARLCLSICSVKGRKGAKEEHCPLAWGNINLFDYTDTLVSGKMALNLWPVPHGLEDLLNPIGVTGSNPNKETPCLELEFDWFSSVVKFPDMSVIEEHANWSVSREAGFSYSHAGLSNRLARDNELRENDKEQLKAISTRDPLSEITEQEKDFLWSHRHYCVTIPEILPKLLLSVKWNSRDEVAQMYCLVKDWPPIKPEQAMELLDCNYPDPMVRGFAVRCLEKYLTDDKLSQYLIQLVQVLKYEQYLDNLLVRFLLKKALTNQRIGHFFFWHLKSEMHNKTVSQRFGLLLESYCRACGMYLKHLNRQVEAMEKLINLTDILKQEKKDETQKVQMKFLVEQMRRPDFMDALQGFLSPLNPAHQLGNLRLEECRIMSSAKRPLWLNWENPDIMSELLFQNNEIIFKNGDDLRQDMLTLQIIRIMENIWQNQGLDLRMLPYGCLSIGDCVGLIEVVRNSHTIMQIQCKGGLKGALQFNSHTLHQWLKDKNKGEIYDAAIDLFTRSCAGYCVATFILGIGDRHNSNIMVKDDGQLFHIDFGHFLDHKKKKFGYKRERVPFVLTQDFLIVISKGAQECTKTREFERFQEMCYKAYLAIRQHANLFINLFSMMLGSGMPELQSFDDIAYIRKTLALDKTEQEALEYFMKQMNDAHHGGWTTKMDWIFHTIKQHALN
T4 sequence (P27986 whole entry partner, species assumed): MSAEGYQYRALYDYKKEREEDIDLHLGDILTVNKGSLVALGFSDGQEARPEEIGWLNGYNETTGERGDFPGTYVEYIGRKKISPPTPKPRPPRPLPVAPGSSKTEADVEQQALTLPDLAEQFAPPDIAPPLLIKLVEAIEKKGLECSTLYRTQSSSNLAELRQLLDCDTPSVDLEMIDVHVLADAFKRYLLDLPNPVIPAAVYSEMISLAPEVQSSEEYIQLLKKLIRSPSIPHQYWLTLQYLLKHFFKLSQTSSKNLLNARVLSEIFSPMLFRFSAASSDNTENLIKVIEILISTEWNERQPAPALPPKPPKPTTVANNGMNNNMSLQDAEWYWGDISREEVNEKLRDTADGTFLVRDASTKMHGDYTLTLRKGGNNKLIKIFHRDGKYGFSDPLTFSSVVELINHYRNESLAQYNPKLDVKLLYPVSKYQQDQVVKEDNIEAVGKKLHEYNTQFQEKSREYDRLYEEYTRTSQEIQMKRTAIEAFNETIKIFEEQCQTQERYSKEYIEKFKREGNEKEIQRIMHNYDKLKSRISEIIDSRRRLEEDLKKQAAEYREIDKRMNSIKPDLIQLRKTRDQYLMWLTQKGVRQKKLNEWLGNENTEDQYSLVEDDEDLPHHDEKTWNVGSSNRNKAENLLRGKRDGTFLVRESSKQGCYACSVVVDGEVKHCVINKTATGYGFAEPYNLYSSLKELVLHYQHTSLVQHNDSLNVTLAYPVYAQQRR
The assay can be described thus: Luciferase-based luminescence assay (KinaseGlo), PI3K alpha enzymatic activity. In kind it is biochemical. Conditions: inhibition of enzymatic activity, 25 μM ATP, read-out: IC50 p110α. The procedure: as §1, §3
A general note: Kinase-Glo reads ATP consumption through a luciferase reaction.

The target of a further assay is T5, PI3K beta (Homo sapiens, UniProt P42338).
T5 construct: purchased Millipore, Billerica, MA, USA
T5 sequence (P42338 whole entry, species assumed): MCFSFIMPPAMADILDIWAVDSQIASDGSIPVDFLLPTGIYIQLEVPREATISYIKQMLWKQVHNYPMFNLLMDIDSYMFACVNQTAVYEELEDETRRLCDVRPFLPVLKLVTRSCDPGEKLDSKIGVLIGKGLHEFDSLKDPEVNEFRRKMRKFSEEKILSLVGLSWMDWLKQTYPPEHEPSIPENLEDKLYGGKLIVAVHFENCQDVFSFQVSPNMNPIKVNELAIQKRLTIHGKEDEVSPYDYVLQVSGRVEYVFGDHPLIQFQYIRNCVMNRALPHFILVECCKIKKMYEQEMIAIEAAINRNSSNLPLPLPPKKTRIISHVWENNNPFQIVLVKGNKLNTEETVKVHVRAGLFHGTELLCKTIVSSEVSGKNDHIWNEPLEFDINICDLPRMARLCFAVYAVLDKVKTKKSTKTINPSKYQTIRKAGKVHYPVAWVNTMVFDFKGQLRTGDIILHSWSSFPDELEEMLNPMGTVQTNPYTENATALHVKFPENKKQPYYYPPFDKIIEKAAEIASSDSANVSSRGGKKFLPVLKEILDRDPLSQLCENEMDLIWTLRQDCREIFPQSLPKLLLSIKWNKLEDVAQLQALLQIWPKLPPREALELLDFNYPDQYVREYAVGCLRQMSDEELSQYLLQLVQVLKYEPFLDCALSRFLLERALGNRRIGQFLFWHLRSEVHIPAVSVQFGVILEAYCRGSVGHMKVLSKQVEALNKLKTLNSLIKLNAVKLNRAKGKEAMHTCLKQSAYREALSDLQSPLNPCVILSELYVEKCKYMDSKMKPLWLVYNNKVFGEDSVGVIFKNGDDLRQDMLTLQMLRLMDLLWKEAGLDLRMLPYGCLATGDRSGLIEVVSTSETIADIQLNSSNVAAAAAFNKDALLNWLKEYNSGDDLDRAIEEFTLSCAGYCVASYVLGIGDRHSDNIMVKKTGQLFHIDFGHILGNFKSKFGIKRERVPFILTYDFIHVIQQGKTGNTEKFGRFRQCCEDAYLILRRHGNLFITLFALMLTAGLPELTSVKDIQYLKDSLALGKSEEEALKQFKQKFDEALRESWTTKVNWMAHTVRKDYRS
T5 sequence (P27986 whole entry partner, species assumed): as the sequence (P27986 whole entry partner, species assumed) above
The assay can be described thus: Luciferase-based luminescence assay (ADP Glo), PI3K beta enzymatic activity. In kind it is biochemical. Conditions: for IC50: inhibition of enzymatic activity, ADP Glo, 25 μM ATP, read-out: IC50 p110β; for α/β ratio: ratio of enzymatic IC50 values, Table 1. The procedure: as §1, §2

T1 sequence (O00329 whole entry): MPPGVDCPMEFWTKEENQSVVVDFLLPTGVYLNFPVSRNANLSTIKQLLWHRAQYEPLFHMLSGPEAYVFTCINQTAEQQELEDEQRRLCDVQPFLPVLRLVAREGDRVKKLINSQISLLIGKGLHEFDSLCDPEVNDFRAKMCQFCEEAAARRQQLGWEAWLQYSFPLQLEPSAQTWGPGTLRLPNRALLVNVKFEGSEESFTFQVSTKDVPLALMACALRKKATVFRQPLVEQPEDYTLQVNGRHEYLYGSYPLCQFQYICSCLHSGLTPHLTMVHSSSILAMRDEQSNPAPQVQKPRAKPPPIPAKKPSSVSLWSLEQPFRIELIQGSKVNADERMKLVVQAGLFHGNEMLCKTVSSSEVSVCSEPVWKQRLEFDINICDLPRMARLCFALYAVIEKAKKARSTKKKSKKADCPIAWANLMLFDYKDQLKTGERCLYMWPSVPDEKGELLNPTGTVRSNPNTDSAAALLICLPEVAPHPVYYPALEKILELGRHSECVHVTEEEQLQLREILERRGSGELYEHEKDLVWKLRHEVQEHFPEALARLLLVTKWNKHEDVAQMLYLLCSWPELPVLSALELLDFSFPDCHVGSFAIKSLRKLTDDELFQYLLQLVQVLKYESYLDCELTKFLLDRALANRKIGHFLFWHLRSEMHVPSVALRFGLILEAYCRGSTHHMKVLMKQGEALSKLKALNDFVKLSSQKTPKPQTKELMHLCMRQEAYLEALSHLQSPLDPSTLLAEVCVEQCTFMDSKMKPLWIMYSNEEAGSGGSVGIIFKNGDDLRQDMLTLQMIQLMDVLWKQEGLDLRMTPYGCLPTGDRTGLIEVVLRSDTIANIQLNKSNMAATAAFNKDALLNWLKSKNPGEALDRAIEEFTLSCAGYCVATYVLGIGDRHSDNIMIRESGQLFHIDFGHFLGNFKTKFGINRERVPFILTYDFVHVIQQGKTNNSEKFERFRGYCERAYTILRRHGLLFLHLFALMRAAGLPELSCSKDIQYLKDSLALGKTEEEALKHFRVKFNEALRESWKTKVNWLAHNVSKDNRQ
T1 sequence (P27986 whole entry partner): as the sequence (P27986 whole entry partner, species assumed) above
T3 sequence (O00329 whole entry, species assumed): as the sequence (O00329 whole entry) above
T3 sequence (P27986 whole entry partner, species assumed): as the sequence (P27986 whole entry partner, species assumed) above

By IC50 is commonly meant the concentration at which inhibition is half-maximal. On to `CC(C)(Cc1ccc(Cl)cc1)Nc1nc(N2CCOCC2)nc(-n2c(C(F)F)nc3ccccc32)n1` [Compound A23, N-(1-(4-chlorophenyl)-2-methylpropan-2-yl)-4-(2-(difluoromethyl)-1H-benzo[d]imidazol-1-yl)-6-morpholino-1,3,5-triazin-2-amine], for which the IC50 against mTOR is more than 500 nM; on PI3Kδ, not above 100 nM; on PI3K gamma, 200 to 500 nM; on PI3K delta, not above 100 nM; on PI3K alpha, more than 500 nM; on PI3K beta, 200 to 500 nM. Moreover, at PI3K delta, the α/δ ratio entry is recorded as “B’”. Besides, the β/δ ratio entry on PI3K delta was “D’”. Besides, the γ/δ ratio entry at PI3K delta is “C’”. Further, the α/β ratio entry on PI3K beta is “D’”.
Regarding `CC(C)(Cc1ccc(Br)cc1)Nc1nc(N2CCOCC2)nc(-n2c(C(F)F)nc3ccccc32)n1` [Compound A24, N-(1-(4-bromophenyl)-2-methylpropan-2-yl)-4-(2-(difluoromethyl)-1H-benzo[d]imidazol-1-yl)-6-morpholino-1,3,5-triazin-2-amine], the IC50 against mTOR is more than 500 nM; at PI3Kδ, not above 100 nM; at PI3K gamma it was 200 to 500 nM; at PI3K delta it was 100 to 200 nM; at PI3K alpha it was more than 500 nM; on PI3K beta it was more than 500 nM. For the same compound, the α/δ ratio entry at PI3K delta is recorded as “D’”. Further, the β/δ ratio entry at PI3K delta is reported as “C’”. Besides, the γ/δ ratio result at PI3K delta is “D’”. At PI3K beta, the α/β ratio entry was “D’”.
In the case of `COc1ccc(CC(C)(C)Nc2nc(N3CCOCC3)nc(-n3c(C(F)F)nc4ccccc43)n2)cc1` [Compound A25, 4-(2-(difluoromethyl)-1H-benzo[d]imidazol-1-yl)-N-(1-(4-methoxyphenyl)-2-methylpropan-2-yl)-6-morpholino-1,3,5-triazin-2-amine], the IC50 at mTOR is more than 500 nM; on PI3Kδ it was not above 100 nM; on PI3K gamma, more than 500 nM; at PI3K delta it was 200 to 500 nM; at PI3K alpha it was more than 500 nM; on PI3K beta, more than 500 nM. Besides, the α/δ ratio entry on PI3K delta was “D’”. For the same compound, the β/δ ratio result on PI3K delta is “A’”. For the same compound, the γ/δ ratio result on PI3K delta was “D’”. At PI3K beta, the α/β ratio result was “D’”.
